Experimental data from patent US20250320206A1, “STAT6 DEGRADERS” (Gilead Sciences, Inc., priority 2024, published 2025).

Columns and labels:
STAT6 = molecular target: T1, STAT6 (Homo sapiens, UniProt P42226); assay: Stat6 Degrader Assay (HiBiT based, HeLa LgBiT clone 4.14); type: cell-based; details: HeLa LgBiT clone 4.14 HiBiT-STAT6, 4-24 h incubation; values given for compounds with >80% Emax; geometric mean; read-out: STAT6 degradation DC50
T1 construct: These cells express endogenous STAT6; host or cells: HeLa LgBiT clone 4.14
T1 sequence (P42226 1-847): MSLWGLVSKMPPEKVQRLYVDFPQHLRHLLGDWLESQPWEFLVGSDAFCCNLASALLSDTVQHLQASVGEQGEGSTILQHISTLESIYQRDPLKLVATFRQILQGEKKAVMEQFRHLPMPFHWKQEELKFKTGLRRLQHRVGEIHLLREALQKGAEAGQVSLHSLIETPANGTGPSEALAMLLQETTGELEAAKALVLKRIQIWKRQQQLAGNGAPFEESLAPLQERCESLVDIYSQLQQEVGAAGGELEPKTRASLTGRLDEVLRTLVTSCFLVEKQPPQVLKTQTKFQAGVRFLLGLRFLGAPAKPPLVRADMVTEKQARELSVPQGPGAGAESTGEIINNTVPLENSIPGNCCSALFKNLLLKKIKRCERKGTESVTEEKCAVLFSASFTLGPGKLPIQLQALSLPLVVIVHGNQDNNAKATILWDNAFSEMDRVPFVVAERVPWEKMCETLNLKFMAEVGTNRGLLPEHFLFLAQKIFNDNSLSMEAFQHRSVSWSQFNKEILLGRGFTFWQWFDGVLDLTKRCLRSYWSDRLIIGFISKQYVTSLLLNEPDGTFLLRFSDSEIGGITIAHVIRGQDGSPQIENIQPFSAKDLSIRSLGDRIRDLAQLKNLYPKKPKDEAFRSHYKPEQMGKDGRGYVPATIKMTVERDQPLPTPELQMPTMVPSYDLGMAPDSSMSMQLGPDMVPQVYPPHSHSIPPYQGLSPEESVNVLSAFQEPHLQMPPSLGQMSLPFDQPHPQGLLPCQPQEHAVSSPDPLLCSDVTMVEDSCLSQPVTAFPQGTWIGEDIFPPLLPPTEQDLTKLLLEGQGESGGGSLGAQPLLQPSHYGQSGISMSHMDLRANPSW
Method in brief: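 Luminescence from HiBiT-STAT6 complementing stably expressed LgBiT in HeLa clone 4.14 reports remaining STAT6 protein. Cells (5000/well) exposed to compound for 4-24 h at 37° C; read 0.5 h after Nano-Glo addition. 100% degradation window set with 50 μM terfenadine; percent degradation plotted against concentration.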

[1] = system: Eotaxin-3 release in human whole blood stimulated with IL-4; assay: Human Whole Blood Eotaxin-3 Assay (IL-4 stimulated eotaxin-3 release); type: cell-based; details: IL-4 stimulation, 48 h, values given for compounds with >80% Emax, geometric mean
Method in brief: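 Eotaxin-3 (CCL26) release measured by MSD kit in plasma supernatant after 48 h IL-4 stimulation ([…]) of human whole blood. Compounds added in triplicate 4-fold dilutions 2 h before stimulation; 0.5% DMSO final, 37° C, 5% CO2.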

Row | Structure (SMILES) | DC50 (STAT6) [nM] | EC50 [1] [nM]
1 | C[C@H]1CN(Cc2ccc3c(c2)C2(CC2)C(=O)N3C2CCC(=O)NC2=O)CCN1CC1CCN(C(=O)c2cc(F)c(C3CCN(Cc4cc5c(-n6ccc7c(c6=O)CCN7)ccnc5n4C)CC3)c(F)c2)CC1 (stereo partly drawn) [Example 3u69, 3-(5′-(((S)-4-((1-(3,5-difluoro-4-(1-((1-methyl-4-(4-oxo-1,2,3,4-tetrahydro-5H-pyrrolo[3,2-c]pyridin-5-yl)-1H-pyrrolo[2,3-b]pyridin-2-yl)methyl)piperidin-4-yl)benzoyl)piperidin-4-yl)methyl)-3-methylpiperazin-1-yl)methyl)-2′-oxospiro[cyclopropane-1,3′-indolin]-1′-yl)piperidine-2,6-dione] | 1.5 | 2.4
2 | CNc1cc(=O)n(-c2ccnc3c2cc(CN2CCC(c4c(F)cc(C(=O)N5CCC(CN6CCN(Cc7ccc8c(c7)C7(CC7)C(=O)N8C7CCC(=O)NC7=O)C[C@@H]6C)CC5)cc4F)CC2)n3C)cc1F (stereo partly drawn) [Example 3u219, 3-(5′-(((S)-4-((1-(3,5-difluoro-4-(1-((4-(5-fluoro-4-(methylamino)-2-oxopyridin-1 (2H)-yl)-1-methyl-1H-pyrrolo[2,3-b]pyridin-2-yl)methyl)piperidin-4-yl)benzoyl)piperidin-4-yl)methyl)-3-methylpiperazin-1-yl)methyl)-2′-oxospiro[cyclopropane-1,3′-indolin]-1′-yl)piperidine-2,6-dione] | 1.8 | 2.2
3 | CNc1ccn(-c2ccnc3c2cc(CN2CC=C(c4c(C)cc(C(=O)N(C)c5ccc(C6CCN(Cc7ccc8c(c7)C(C)(C)C(=O)N8[C@H]7CCC(=O)NC7=O)CC6)cc5)cc4F)CC2)n3C)c(=O)c1 (single isomer, unassigned) [Example 3u229] | 0.3 | 1.6
4 | C[C@H]1CN(Cc2ccc3c(c2)C(C)(C)C(=O)N3C2CCC(=O)NC2=O)CCN1CC1CCN(C(=O)c2cc(F)c(C3CCN(Cc4cc5c(-n6ccc7c(c6=O)CCN7)ccnc5n4C)CC3)c(F)c2)CC1 (stereo partly drawn) [Example 3u86, 3-(5-(((S)-4-((1-(3,5-difluoro-4-(1-((1-methyl-4-(4-oxo-1,2,3,4-tetrahydro-5H-pyrrolo[3,2-c]pyridin-5-yl)-1H-pyrrolo[2,3-b]pyridin-2-yl)methyl)piperidin-4-yl)benzoyl)piperidin-4-yl)methyl)-3-methylpiperazin-1-yl)methyl)-3,3-dimethyl-2-oxoindolin-1-yl)piperidine-2,6-dione] | 3.4 | 5.1
5 | CNc1cc(=O)n(-c2ccnc3c2cc([C@H](C)N2CC=C(c4c(C)cc(C(=O)N(C)c5ccc(C6CCN(Cc7ccc8c(c7)C(C)(C)C(=O)N8[C@@H]7CCC(=O)NC7=O)CC6)cc5)cc4F)CC2)n3C)cc1F (single isomer, unassigned) [Example 3u235] | 0.1 | 1.4
6 | CNc1cc(=O)n(-c2ccnc3c2cc([C@H](C)N2CCC(c4ccc(C(=O)N5CCC(CN6CCN(Cc7ccc8c(c7)C7(CC7)C(=O)N8[C@H]7CCC(=O)NC7=O)C[C@@H]6C)CC5)cc4)CC2)n3C)cc1F (single isomer, unassigned) [Example 3u37] | 0.5 | 1.7
7 | CNc1cc(=O)n(-c2ccnc3c2cc(CN2CCC(c4c(F)cc(C(=O)N5CCC(CN6CCN(Cc7ccc8c(c7)C(C)(C)C(=O)N8C7CCC(=O)NC7=O)C[C@@H]6C)CC5)cc4F)CC2)n3C)cc1F (stereo partly drawn) [Example 3u48, 3-(5-(((S)-4-((1-(3,5-difluoro-4-(1-((4-(5-fluoro-4-(methylamino)-2-oxopyridin-1 (2H)-yl)-1-methyl-1H-pyrrolo[2,3-b]pyridin-2-yl)methyl)piperidin-4-yl)benzoyl)piperidin-4-yl)methyl)-3-methylpiperazin-1-yl)methyl)-3,3-dimethyl-2-oxoindolin-1-yl)piperidine-2,6-dione] | 11.2 | 7.7

Further lines, results first:

Row | DC50 (STAT6) [nM] | EC50 [1] [nM] | Structure (SMILES)
8 | 0.4 | 1.8 | CNc1cc(=O)n(-c2ccnc3c2cc([C@H](C)N2CC=C(c4c(C)cc(C(=O)N5CCC(CN6CCN(Cc7ccc8c(c7)n(C)c(=O)n8[C@@H]7CCC(=O)NC7=O)C[C@@H]6C)CC5)cc4F)CC2)n3C)cc1F (single isomer, unassigned) [Example 3u92]
9 | 3.8 | 4.9 | CNc1cc(=O)n(-c2ccnc3c2cc([C@H](C)N2CC=C(c4c(F)cc(C(=O)N5CCC(CN6CCN(Cc7ccc8c(c7)C(C)(C)C(=O)N8C7CCC(=O)NC7=O)C[C@@H]6C)CC5)cc4F)CC2)n3C)cc1F (stereo partly drawn) [Example 3u9, 3-(5-(((S)-4-((1-(3,5-difluoro-4-(1-((S)-1-(4-(5-fluoro-4-(methylamino)-2-oxopyridin-1 (2H)-yl)-1-methyl-1H-pyrrolo[2,3-b]pyridin-2-yl)ethyl)-1,2,3,6-tetrahydropyridin-4-yl)benzoyl)-piperidin-4-yl)methyl)-3-methylpiperazin-1-yl)methyl)-3,3-dimethyl-2-oxoindolin-1-yl)piperidine-2,6-dione]
10 | 3.1 | 1.7 | CNc1ccn(-c2ccnc3c2cc(CN2CC=C(c4c(C)cc(C(=O)N5CCC(CN6CCN(Cc7ccc8c(c7)n(C)c(=O)n8[C@H]7CCC(=O)NC7=O)CC6)CC5)cc4F)CC2)n3C)c(=O)c1 (single isomer, unassigned) [Example 3u161]
11 | 4.1 | 43.7 | CNc1cc(=O)n(-c2ccnc3c2cc([C@H](C)N2CC=C(c4c(C)cc(C(=O)N5CCC(CN6CCN(Cc7ccc8c(c7)C(C)(C)C(=O)N8[C@@H]7CCC(=O)NC7=O)CC6)CC5)cc4F)CC2)n3C)cc1F (single isomer, unassigned) [Example 3u89]
12 | 0.1 | 1.7 | CNc1cc(=O)n(-c2ccnc3c2cc([C@H](C)N2CC=C(c4c(C)cc(C(=O)N(C)c5ccc(N6CCN(Cc7ccc8c(c7)n(C)c(=O)n8C7CCC(=O)NC7=O)CC6)nc5)cc4F)CC2)n3C)cc1F (stereo partly drawn) [Example 3u237, N-(6-(4-((1-(2,6-dioxopiperidin-3-yl)-3-methyl-2-oxo-2,3-dihydro-1H-benzo[d]-imidazol-5-yl)methyl)piperazin-1-yl)pyridin-3-yl)-3-fluoro-4-(1-((S)-1-(4-(5-fluoro-4-(methylamino)-2-oxopyridin-1 (2H)-yl)-1-methyl-1H-pyrrolo[2,3-b]pyridin-2-yl)ethyl)-1,2,3,6-tetrahydropyridin-4-yl)-N,5-dimethylbenzamide]
13 | 6.4 | 10.1 | CNc1cc(=O)n(-c2ccnc3c2cc([C@H](C)N2CC=C(c4c(C)cc(C(=O)N5CCC(CN6CCN(Cc7cc8c(cc7F)N([C@H]7CCC(=O)NC7=O)C(=O)C87CC7)CC6)CC5)cc4F)CC2)n3C)cc1F (single isomer, unassigned) [Example 3u154]
14 | 1.2 | 1.6 | CNc1ccn(-c2ccnc3c2cc([C@H](C)N2CCC(c4c(C)cc(C(=O)N5CCC(CN6CCN(Cc7ccc8c(c7)n(C7CC7)c(=O)n8[C@H]7CCC(=O)NC7=O)C[C@@H]6C)CC5)cc4F)CC2)n3C)c(=O)c1 (single isomer, unassigned) [Example 3u198]
15 | 1.7 | 0.9 | CNc1ccn(-c2ccnc3c2cc([C@H](C)N2CC=C(c4c(C)cc(C(=O)N5CCC(CN6CCN(Cc7cc8c(cc7F)N([C@H]7CCC(=O)NC7=O)C(=O)C87CC7)C[C@@H]6C)CC5)cc4F)CC2)n3C)c(=O)c1 (single isomer, unassigned) [Example 3u194]
16 | 0.2 | 0.4 | Cc1cc(C(=O)N2CCC(CN3CCN(Cc4ccc5c(c4)n(C)c(=O)n5C4CCC(=O)NC4=O)C[C@@H]3C)CC2)cc(F)c1C1=CCN([C@@H](C)c2cc3c(-n4ccc5c(c4=O)CCN5)ccnc3n2C)CC1 (stereo partly drawn) [Example 3u137, 3-(5-(((S)-4-((1-(3-fluoro-5-methyl-4-(1-((S)-1-(1-methyl-4-(4-oxo-1,2,3,4-tetrahydro-5H-pyrrolo[3,2-c]pyridin-5-yl)-1H-pyrrolo[2,3-b]pyridin-2-yl)ethyl)-1,2,3,6-tetrahydropyridin-4-yl)benzoyl)piperidin-4-yl)methyl)-3-methylpiperazin-1-yl)methyl)-3-methyl-2-oxo-2,3-dihydro-1H-benzo[d]imidazol-1-yl)piperidine-2,6-dione]
